Experimental data: patent US5932410A, “Assay for the detection of proteases” (Commonwealth Scientific and Industrial Research …, priority 1994, dated 1999)
Where a SMILES comes first, the peptide text is derived from it. The star is where a group is joined. Cbz = O=C(OCc1ccccc1)*

Legend:
Assay type in all cases: biochemical
Chymotrypsin = Chymotrypsin (Bos taurus, UniProt P00766); assay: Esterase assay, chymotrypsin; details: Z-AX-OMe substrate; for Esterase rate, Chymotrypsin: X = P1 residue, rates approximately ± 10%; for % of maximum activity, Chymotrypsin: percentage of the maximum activity
Excerpt: (§1) Advantage was taken of this activity to develop an "esterase" assay which uses a pH indicator to visualise the hydrogen ion release caused by the action of proteases on peptide-ester substrates. A series of twenty compounds of the form, carbobenzoxy alanyl-X-methyl ester (Z-AX-OMe) were synthesised where "X" is one of the naturally occurring amino acids. These substrates were used in a 96 well microtitre plate assay to screen each mutant enzyme for activity and specificity. The reactions were followed visually or quantified using a standard ELISA plate reader. The esterase assay, using trypsin as a test enzyme and Z-Ala-Arg-OMe as substrate, was more sensitive as than traditional trypsin substrates (three times the rate obtained with benzoyl arginine ethyl aster and twenty times the rate of benzoyl arginine p-nitroanilide) (Whittaker et al., Analytical Biochemistry, 220, 238-243, 1994).
(§2) The present inventors produced a panel of substrates carbobenzoxy alanyl-X-methyl eater (Z-AX-OMe) where X is one of the naturally occurring amino acids. The reactivity of these substrates with a number of serine proteases is set out in Table 1 and FIG. 1.
(§3) Rates are A580 change/min./mg protease. Rates are also shown as a […]

Subtilisin = assay: Esterase assay, subtilisin; details: Z-AX-OMe substrate; for Esterase rate, Subtilisin: X = P1 residue, rates approximately ± 10%; for % of maximum activity, Subtilisin: percentage of the maximum activity
Excerpt: as §1, §2, §3

Proteinase K = Proteinase K (Parengyodontium album, UniProt P06873); assay: Esterase assay, proteinase K; details: Z-AX-OMe substrate; for Esterase rate, Proteinase K: X = P1 residue, rates approximately ± 10%; for % of maximum activity, Proteinase K: percentage of the maximum activity
Excerpt: as §1, §2, §3

Trypsin = assay: Esterase assay, trypsin; details: Z-AX-OMe substrate; for Esterase rate, Trypsin: X = P1 residue, rates approximately ± 10%; for % of maximum activity, Trypsin: percentage of the maximum activity
Excerpt: as §1, §2, §3

α-Lytic protease = α-Lytic protease (Lysobacter enzymogenes, UniProt P00778); assay: Esterase assay, α-lytic protease; details: Z-AX-OMe substrate; for Esterase rate, α-Lytic protease: X = P1 residue, rates approximately ± 10%; for % activity, α-Lytic protease: normalised to alanine
Excerpt: as §1, §2, §3

Thrombin = Thrombin (Homo sapiens, UniProt P00734); assay: Esterase assay, thrombin; details: Z-AX-OMe substrate; for Esterase rate, Thrombin: X = P1 residue, rates approximately ± 10%; for % of maximum activity, Thrombin: percentage of the maximum activity
Excerpt: as §1, §2, §3

Elastase = Elastase (Sus scrofa, UniProt P00772); assay: Esterase assay, elastase; details: Z-AX-OMe substrate; for Esterase rate, Elastase: X = P1 residue, rates approximately ± 10%; for % activity, Elastase: normalised to alanine
Excerpt: as §1, §2, §3

Elastase, sequence (P00772 27-266): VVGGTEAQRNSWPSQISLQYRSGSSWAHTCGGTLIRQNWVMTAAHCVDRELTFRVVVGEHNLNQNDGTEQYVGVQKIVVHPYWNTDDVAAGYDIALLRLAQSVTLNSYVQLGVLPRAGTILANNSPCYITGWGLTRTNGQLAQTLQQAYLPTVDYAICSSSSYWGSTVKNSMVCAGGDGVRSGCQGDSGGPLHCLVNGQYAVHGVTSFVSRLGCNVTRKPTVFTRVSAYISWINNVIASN
Proteinase K, sequence (P06873 106-384): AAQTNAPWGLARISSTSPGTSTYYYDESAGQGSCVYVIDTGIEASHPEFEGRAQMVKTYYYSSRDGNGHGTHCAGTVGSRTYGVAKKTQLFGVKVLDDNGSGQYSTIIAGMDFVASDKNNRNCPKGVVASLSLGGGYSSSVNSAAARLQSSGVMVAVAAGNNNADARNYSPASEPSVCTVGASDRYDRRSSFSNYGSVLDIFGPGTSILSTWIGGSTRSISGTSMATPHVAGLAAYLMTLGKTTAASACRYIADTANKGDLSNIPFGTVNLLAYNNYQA
α-Lytic protease, sequence (P00778 25-397 limits assumed): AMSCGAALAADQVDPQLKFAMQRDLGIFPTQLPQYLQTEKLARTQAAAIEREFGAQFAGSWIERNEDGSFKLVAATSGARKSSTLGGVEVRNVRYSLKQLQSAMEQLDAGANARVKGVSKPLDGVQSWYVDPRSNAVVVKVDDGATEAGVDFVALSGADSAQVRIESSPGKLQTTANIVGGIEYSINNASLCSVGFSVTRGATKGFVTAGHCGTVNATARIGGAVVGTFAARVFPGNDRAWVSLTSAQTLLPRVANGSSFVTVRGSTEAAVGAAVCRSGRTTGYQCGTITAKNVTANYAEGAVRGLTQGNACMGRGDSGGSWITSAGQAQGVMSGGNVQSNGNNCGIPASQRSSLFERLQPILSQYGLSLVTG

COC(=O)[C@H](CCCCN)NC(=O)[C@H](C)NC(=O)OCc1ccccc1 [Lys] (Cbz-Ala-Lys-OMe)
Esterase rate, Chymotrypsin (Chymotrypsin): 1.5 A580 change/min./mg protease | % of maximum activity, Chymotrypsin (Chymotrypsin): 2.7% | Esterase rate, Subtilisin (Subtilisin): 153 A580 change/min./mg protease | % of maximum activity, Subtilisin (Subtilisin): 7.1% | Esterase rate, Proteinase K (Proteinase K): 61 A580 change/min./mg protease | % of maximum activity, Proteinase K (Proteinase K): 7.9% | Esterase rate, Trypsin (Trypsin): 155.8 A580 change/min./mg protease | % of maximum activity, Trypsin (Trypsin): 44.0% | Esterase rate, α-Lytic protease (α-Lytic protease): 0 A580 change/min./mg protease | % activity, α-Lytic protease (α-Lytic protease): 0% | Esterase rate, Thrombin (Thrombin): 4.3 A580 change/min./mg protease | % of maximum activity, Thrombin (Thrombin): 49.0% | Esterase rate, Elastase (Elastase): 0 A580 change/min./mg protease | % activity, Elastase (Elastase): 0%

COC(=O)[C@@H]1CCCN1C(=O)[C@H](C)NC(=O)OCc1ccccc1 [Pro] (Cbz-Ala-Pro-OMe)
Esterase rate, Chymotrypsin (Chymotrypsin): 0 A580 change/min./mg protease | % of maximum activity, Chymotrypsin (Chymotrypsin): 0% | Esterase rate, Subtilisin (Subtilisin): trace | Esterase rate, Proteinase K (Proteinase K): trace | Esterase rate, Trypsin (Trypsin): 0 A580 change/min./mg protease | % of maximum activity, Trypsin (Trypsin): 0% | Esterase rate, α-Lytic protease (α-Lytic protease): 0 A580 change/min./mg protease | % activity, α-Lytic protease (α-Lytic protease): 0% | Esterase rate, Thrombin (Thrombin): 0 A580 change/min./mg protease | % of maximum activity, Thrombin (Thrombin): 0% | Esterase rate, Elastase (Elastase): 0 A580 change/min./mg protease | % activity, Elastase (Elastase): 0%

COC(=O)[C@H](Cc1cnc[nH]1)NC(=O)[C@H](C)NC(=O)OCc1ccccc1 [His] (Cbz-Ala-His-OMe)
Esterase rate, Chymotrypsin (Chymotrypsin): 1.5 A580 change/min./mg protease | % of maximum activity, Chymotrypsin (Chymotrypsin): 2.7% | Esterase rate, Subtilisin (Subtilisin): 249 A580 change/min./mg protease | % of maximum activity, Subtilisin (Subtilisin): 11.6% | Esterase rate, Proteinase K (Proteinase K): 203 A580 change/min./mg protease | % of maximum activity, Proteinase K (Proteinase K): 26.2% | Esterase rate, Trypsin (Trypsin): 3.0 A580 change/min./mg protease | % of maximum activity, Trypsin (Trypsin): 0.8% | Esterase rate, α-Lytic protease (α-Lytic protease): 0 A580 change/min./mg protease | % activity, α-Lytic protease (α-Lytic protease): 0% | Esterase rate, Thrombin (Thrombin): trace | Esterase rate, Elastase (Elastase): 0 A580 change/min./mg protease | % activity, Elastase (Elastase): 0%

COC(=O)[C@H](C)NC(=O)[C@H](C)NC(=O)OCc1ccccc1 [Ala] (Cbz-Ala-Ala-OMe)
Esterase rate, Chymotrypsin (Chymotrypsin): trace | Esterase rate, Subtilisin (Subtilisin): 1536 A580 change/min./mg protease | % of maximum activity, Subtilisin (Subtilisin): 73.8% | Esterase rate, Proteinase K (Proteinase K): 775 A580 change/min./mg protease | % of maximum activity, Proteinase K (Proteinase K): 100% | Esterase rate, Trypsin (Trypsin): 0 A580 change/min./mg protease | % of maximum activity, Trypsin (Trypsin): 0% | Esterase rate, α-Lytic protease (α-Lytic protease): 6.2 A580 change/min./mg protease | % activity, α-Lytic protease (α-Lytic protease): 100% | Esterase rate, Thrombin (Thrombin): 0 A580 change/min./mg protease | % of maximum activity, Thrombin (Thrombin): 0% | Esterase rate, Elastase (Elastase): 15.7 A580 change/min./mg protease | % activity, Elastase (Elastase): 100%

COC(=O)[C@H](CCC(=O)O)NC(=O)[C@H](C)NC(=O)OCc1ccccc1 [Glu] (Cbz-Ala-Glu-OMe)
Esterase rate, Chymotrypsin (Chymotrypsin): 0 A580 change/min./mg protease | % of maximum activity, Chymotrypsin (Chymotrypsin): 0% | Esterase rate, Subtilisin (Subtilisin): 83 A580 change/min./mg protease | % of maximum activity, Subtilisin (Subtilisin): 3.9% | Esterase rate, Proteinase K (Proteinase K): 97 A580 change/min./mg protease | % of maximum activity, Proteinase K (Proteinase K): 12.5% | Esterase rate, Trypsin (Trypsin): 0 A580 change/min./mg protease | % of maximum activity, Trypsin (Trypsin): 0% | Esterase rate, α-Lytic protease (α-Lytic protease): 0 A580 change/min./mg protease | % activity, α-Lytic protease (α-Lytic protease): 0% | Esterase rate, Thrombin (Thrombin): 0 A580 change/min./mg protease | % of maximum activity, Thrombin (Thrombin): 0% | Esterase rate, Elastase (Elastase): 0 A580 change/min./mg protease | % activity, Elastase (Elastase): 0%

COC(=O)[C@H](CCSC)NC(=O)[C@H](C)NC(=O)OCc1ccccc1 [Met] (Cbz-Ala-Met-OMe)
Esterase rate, Chymotrypsin (Chymotrypsin): 6.6 A580 change/min./mg protease | % of maximum activity, Chymotrypsin (Chymotrypsin): 12.0% | Esterase rate, Subtilisin (Subtilisin): 2149 A580 change/min./mg protease | % of maximum activity, Subtilisin (Subtilisin): 100% | Esterase rate, Proteinase K (Proteinase K): 525 A580 change/min./mg protease | % of maximum activity, Proteinase K (Proteinase K): 67.7% | Esterase rate, Trypsin (Trypsin): 0 A580 change/min./mg protease | % of maximum activity, Trypsin (Trypsin): 0% | Esterase rate, α-Lytic protease (α-Lytic protease): 2.0 A580 change/min./mg protease | % activity, α-Lytic protease (α-Lytic protease): 32.3% | Esterase rate, Thrombin (Thrombin): 0 A580 change/min./mg protease | % of maximum activity, Thrombin (Thrombin): 0% | Esterase rate, Elastase (Elastase): trace

COC(=O)[C@H](Cc1ccccc1)NC(=O)[C@H](C)NC(=O)OCc1ccccc1 [Phe]
Esterase rate, Chymotrypsin (Chymotrypsin): 37.8 A580 change/min./mg protease | % of maximum activity, Chymotrypsin (Chymotrypsin): 68.5% | Esterase rate, Subtilisin (Subtilisin): 998 A580 change/min./mg protease | % of maximum activity, Subtilisin (Subtilisin): 46.0% | Esterase rate, Proteinase K (Proteinase K): 342 A580 change/min./mg protease | % of maximum activity, Proteinase K (Proteinase K): 44.1% | Esterase rate, Trypsin (Trypsin): 2.9 A580 change/min./mg protease | % of maximum activity, Trypsin (Trypsin): 0.8% | Esterase rate, α-Lytic protease (α-Lytic protease): 0 A580 change/min./mg protease | % activity, α-Lytic protease (α-Lytic protease): 0% | Esterase rate, Thrombin (Thrombin): 0 A580 change/min./mg protease | % of maximum activity, Thrombin (Thrombin): 0% | Esterase rate, Elastase (Elastase): 0 A580 change/min./mg protease | % activity, Elastase (Elastase): 0%

COC(=O)[C@H](CC(N)=O)NC(=O)[C@H](C)NC(=O)OCc1ccccc1 [Asn] (Cbz-Ala-Asn-OMe)
Esterase rate, Chymotrypsin (Chymotrypsin): 0.3 A580 change/min./mg protease | % of maximum activity, Chymotrypsin (Chymotrypsin): 0.5% | Esterase rate, Subtilisin (Subtilisin): 244 A580 change/min./mg protease | % of maximum activity, Subtilisin (Subtilisin): 11.4% | Esterase rate, Proteinase K (Proteinase K): 137 A580 change/min./mg protease | % of maximum activity, Proteinase K (Proteinase K): 17.7% | Esterase rate, Trypsin (Trypsin): 0 A580 change/min./mg protease | % of maximum activity, Trypsin (Trypsin): 0% | Esterase rate, α-Lytic protease (α-Lytic protease): 0 A580 change/min./mg protease | % activity, α-Lytic protease (α-Lytic protease): 0% | Esterase rate, Thrombin (Thrombin): 0 A580 change/min./mg protease | % of maximum activity, Thrombin (Thrombin): 0% | Esterase rate, Elastase (Elastase): 0 A580 change/min./mg protease | % activity, Elastase (Elastase): 0%

COC(=O)[C@H](CC(C)C)NC(=O)[C@H](C)NC(=O)OCc1ccccc1 [Leu] (Cbz-Ala-Leu-OMe)
Esterase rate, Chymotrypsin (Chymotrypsin): 2.4 A580 change/min./mg protease | % of maximum activity, Chymotrypsin (Chymotrypsin): 4.3% | Esterase rate, Subtilisin (Subtilisin): 1329 A580 change/min./mg protease | % of maximum activity, Subtilisin (Subtilisin): 61.8% | Esterase rate, Proteinase K (Proteinase K): 240 A580 change/min./mg protease | % of maximum activity, Proteinase K (Proteinase K): 31.0% | Esterase rate, Trypsin (Trypsin): 0 A580 change/min./mg protease | % of maximum activity, Trypsin (Trypsin): 0% | Esterase rate, α-Lytic protease (α-Lytic protease): 0 A580 change/min./mg protease | % activity, α-Lytic protease (α-Lytic protease): 0% | Esterase rate, Thrombin (Thrombin): 0 A580 change/min./mg protease | % of maximum activity, Thrombin (Thrombin): 0% | Esterase rate, Elastase (Elastase): 3.4 A580 change/min./mg protease | % activity, Elastase (Elastase): 21.7%

COC(=O)[C@H](CC(=O)O)NC(=O)[C@H](C)NC(=O)OCc1ccccc1 [Asp] (Cbz-Ala-Asp-OMe)
Esterase rate, Chymotrypsin (Chymotrypsin): 0 A580 change/min./mg protease | % of maximum activity, Chymotrypsin (Chymotrypsin): 0% | Esterase rate, Subtilisin (Subtilisin): trace | Esterase rate, Proteinase K (Proteinase K): 18 A580 change/min./mg protease | % of maximum activity, Proteinase K (Proteinase K): 2.3% | Esterase rate, Trypsin (Trypsin): 0 A580 change/min./mg protease | % of maximum activity, Trypsin (Trypsin): 0% | Esterase rate, α-Lytic protease (α-Lytic protease): 0 A580 change/min./mg protease | % activity, α-Lytic protease (α-Lytic protease): 0% | Esterase rate, Thrombin (Thrombin): 0 A580 change/min./mg protease | % of maximum activity, Thrombin (Thrombin): 0% | Esterase rate, Elastase (Elastase): 0 A580 change/min./mg protease | % activity, Elastase (Elastase): 0%

CC[C@H](C)[C@H](NC(=O)[C@H](C)NC(=O)OCc1ccccc1)C(=O)OC [Ile] (Cbz-Ala-Ile-OMe)
Esterase rate, Chymotrypsin (Chymotrypsin): 0 A580 change/min./mg protease | % of maximum activity, Chymotrypsin (Chymotrypsin): 0% | Esterase rate, Subtilisin (Subtilisin): 16 A580 change/min./mg protease | % of maximum activity, Subtilisin (Subtilisin): 0.7% | Esterase rate, Proteinase K (Proteinase K): 5 A580 change/min./mg protease | % of maximum activity, Proteinase K (Proteinase K): 0.6% | Esterase rate, Trypsin (Trypsin): 0 A580 change/min./mg protease | % of maximum activity, Trypsin (Trypsin): 0% | Esterase rate, α-Lytic protease (α-Lytic protease): 0 A580 change/min./mg protease | % activity, α-Lytic protease (α-Lytic protease): 0% | Esterase rate, Thrombin (Thrombin): 0 A580 change/min./mg protease | % of maximum activity, Thrombin (Thrombin): 0% | Esterase rate, Elastase (Elastase): 1.7 A580 change/min./mg protease | % activity, Elastase (Elastase): 11.0%
